The values that follow come from patent publication US20210085743A1, “SARRACENIA-BASED TOPICAL COMPOSITIONS AND METHODS OF USE THEREOF” (Aubio Life Sciences, LLC, priority 2019, published 2021).

Data set [1] concerns cancer cells including melanoma. Particulars: various types of cancer cells including melanoma; cited from earlier work.
Data set [2] has as its system THP-1 cells. Briefly: TLR agonist-induced IL-8 and TNF-α release (ELISA) in THP-1 cells. In kind it is cell-based, human. Particulars: control wells, 24 h.
Description: Naïve THP-1 cells were exposed for 24 to the TLR3 agonist poly(I:C) (100 μg/ml), to the TLR7/8 agonist imidazoquinoline (1 μg/m1), to the TLR9 agonist Class A CpG oligonucleotide 5 μM, and to LPS from Escherichia coli serotype 0127:B8 10 ng/ml in the presence or absence of three not cytotoxic concentrations of the extract. IL-8 and TNF-α were measured by ELISA as reference cytokines. Three independent experiments will be conducted. A statistically significant difference versus control cells was considered relevant.
Naïve THP-1 cells were exposed for 24 to poly(I:C) 100 μg/ml, imidazoquinoline (Imid) 1 μg/ml, or LPS 10 ng/ml in the presence or absence of three concentrations of the extract 0.1, 0.5 and 1.0 mg/ml). IL-8 release was measured by ELISA.
Naïve THP-1 cells were exposed for 24 to poly(I:C) 100 μg/ml, imidazoquinoline (Imid) 1 μg/ml, or LPS 10 ng/ml in the presence or absence of three concentrations of the extract 0.1, 0.5 and 1.0 mg/ml). TNF-α release was measured by ELISA.
Data set [3] relates to mycobacteria. The note with it: from methanolic extracts of Sarracenia purpurea; cited from earlier work.
Data set [4] relates to herpes. The note with it: guinea pig, topical, as infrequently as once weekly; cited from earlier work.
For data set [5], the system named is Reconstructed human epithelium (RhE). The data set is described as follows: MTT cell viability in SDS-damaged reconstructed human epithelium. Particulars: SDS 0.15% for 1 h, MTT 24 h later. In kind it is cell-based. The method, then: (§1) Reconstructed human epithelium (RhE) was damaged by exposure to SDS 0.15% for 1 h, then 25 μL of the final Sarracenia formulation (Gel B) was applied. Cell viability by the MTT assay (FIG. 1), and cytokine release, specifically, IL-1α, IL-6, IL-8 and G-CSF release measured using ELISA (FIG. 2), were evaluated 24 h later. Each treatment was run in triplicate. A statistically significant (Tukey's multiple comparison test) recovery in cell viability and cytokine release compared to SDS treated inserts was considered as indicator of repair capacity.
Each value represents the mean±SD, n=3. **p<0.01 vs control. The dotted line is set at the level of cytotoxicity obtained following SDS damage.
FIG. 1 (legend): Sarracenia extract formulation improve cellular viability in a skin irritant model. The results obtained on cell viability (MTT assay) are reported. Each value represents the mean±SD, n=3. Statistical analysis was performed with Tukey's multiple comparison test with **p<0.01 vs Control. The dotted line is set at the level of cytotoxicity obtained following SDS damage.

Data set [6] shares this test system. The data set is described as follows: Cytokine release (ELISA) in SDS-damaged reconstructed human epithelium. It is filed as cell-based. The note with it: SDS vs untreated control group. How it is done: as §1, with “capacity. FIG. 2 (legend): Evaluation of cytokine production. Each value represents the mean±SD, n=3. Statistical analysis was performed with Tukey's multiple comparison test with *p<0.05 vs Control and § vs SDS treated group.” for “capacity.”
A general note: ELISA stands for enzyme-linked immunosorbent assay.

`C=C(C)[C@@H]1CC[C@]2(CO)CC[C@]3(C)[C@H](CC[C@@H]4[C@@]5(C)CC[C@H](O)C(C)(C)[C@@H]5CC[C@]43C)[C@@H]12` [betulin]: the anti-tumor activity result in data set [1] was “anti-tumor activity”.

`C=C(C)[C@@H]1CC[C@]2(C)CC[C@]3(C)[C@H](CC[C@@H]4[C@@]5(C)CC[C@H](O)C(C)(C)[C@@H]5CC[C@]43C)[C@@H]12` [lupeol]: the anti-tumor activity result in data set [1] is on record as “anti-tumor activity”.

Take `c1cnc2c(c1)ccc1nc[nH]c12` [imidazoquinoline]: in data set [2], the “IL-8 release by TLR agonist alone” value is “induced”.

With `C[C@H]1[C@H](C)CC[C@]2(C(=O)O)CC[C@]3(C)C(=CC[C@@H]4[C@@]5(C)CC[C@H](O)C(C)(C)[C@@H]5CC[C@]43C)[C@H]12` [ursolic acid], the antimycobacterial activity result in data set [3] is given as “responsible for the antimycobacterial activity”.

With Poly(I:C), the “IL-8 release by TLR agonist alone” value in data set [2] is given as “induced”.

On to `CCOCc1nc2c(N)nc3ccccc3c2n1CC(C)(C)O` [Resiquimod, 4-amino-2-ethoxymethyl-α,α-dimethyl-1H-imidazo [4,5-c]quinoline-1-ethanol], for which, in data set [4], the “recurrences of herpes after therapy” value was “reduces recurrences of herpes”.

On to `C=C(C)[C@@H]1CC[C@]2(C=O)CC[C@]3(C)[C@H](CC[C@@H]4[C@@]5(C)CC[C@H](O)C(C)(C)[C@@H]5CC[C@]43C)[C@@H]12` [betulinaldehyde], for which the antimycobacterial activity entry in data set [3] is “responsible for the antimycobacterial activity”.

`CCCCCCCCCCCCOS(=O)(=O)[O-].[Na+]` [SDS]: in data set [5], the “cell viability after SDS damage” value is given as “below 50%”. Further, in data set [6], the IL-1α release result is listed as “increase” and the IL-8 release entry was “increase”.
